Source: article PMC5068113 (Pharmacognosy Magazine, 2016)
In brackets after ≈: the same amount, converted by molar mass.

How the values were obtained:
Test in all cases: CYP inhibition by substrate-cocktail method in HLM
Assay type in all cases: in vitro ADME
[1] = target: T1, human CYP2C8 (Homo sapiens, UniProt P10632)
T1 sequence (P10632 1-490): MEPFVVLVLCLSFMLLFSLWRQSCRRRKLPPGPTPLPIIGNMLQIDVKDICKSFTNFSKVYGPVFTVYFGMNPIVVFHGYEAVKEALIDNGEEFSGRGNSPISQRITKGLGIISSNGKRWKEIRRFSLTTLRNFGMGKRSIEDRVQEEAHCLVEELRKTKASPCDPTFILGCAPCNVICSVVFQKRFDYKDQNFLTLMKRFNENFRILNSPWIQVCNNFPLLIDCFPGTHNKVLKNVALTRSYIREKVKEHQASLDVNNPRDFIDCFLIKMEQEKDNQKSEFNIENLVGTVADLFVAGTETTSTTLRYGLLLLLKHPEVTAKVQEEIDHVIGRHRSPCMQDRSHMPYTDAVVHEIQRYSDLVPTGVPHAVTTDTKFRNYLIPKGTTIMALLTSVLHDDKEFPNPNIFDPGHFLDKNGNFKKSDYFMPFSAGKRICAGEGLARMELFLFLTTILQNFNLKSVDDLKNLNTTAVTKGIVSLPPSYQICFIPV

[2] = target: T2, CYP1A2 (Homo sapiens, UniProt P05177); conditions: human liver microsomes, pH 7.4, probe tacrine
T2 sequence (P05177 1-516): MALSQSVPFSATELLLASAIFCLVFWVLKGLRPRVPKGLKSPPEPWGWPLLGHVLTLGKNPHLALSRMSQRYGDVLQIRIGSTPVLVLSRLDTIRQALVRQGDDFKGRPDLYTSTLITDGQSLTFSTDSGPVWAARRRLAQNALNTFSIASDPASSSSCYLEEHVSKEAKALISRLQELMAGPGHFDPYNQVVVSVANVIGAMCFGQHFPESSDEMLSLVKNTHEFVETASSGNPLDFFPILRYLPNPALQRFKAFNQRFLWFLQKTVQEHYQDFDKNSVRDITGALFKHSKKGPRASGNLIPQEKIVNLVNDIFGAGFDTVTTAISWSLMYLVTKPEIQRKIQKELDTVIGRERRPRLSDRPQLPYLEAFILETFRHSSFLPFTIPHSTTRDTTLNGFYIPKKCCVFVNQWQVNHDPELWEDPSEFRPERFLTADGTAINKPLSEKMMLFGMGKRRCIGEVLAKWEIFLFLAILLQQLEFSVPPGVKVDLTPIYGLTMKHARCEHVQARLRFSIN

[3] = target: CYP2C9 (Homo sapiens, UniProt P11712); conditions: human liver microsomes, pH 7.4, probe diclofenac
[4] = target: CYP2D6 (Homo sapiens, UniProt P10635); conditions: human liver microsomes, pH 7.4, probe dextromethorphan
CYP2D6, sequence (P10635 whole entry): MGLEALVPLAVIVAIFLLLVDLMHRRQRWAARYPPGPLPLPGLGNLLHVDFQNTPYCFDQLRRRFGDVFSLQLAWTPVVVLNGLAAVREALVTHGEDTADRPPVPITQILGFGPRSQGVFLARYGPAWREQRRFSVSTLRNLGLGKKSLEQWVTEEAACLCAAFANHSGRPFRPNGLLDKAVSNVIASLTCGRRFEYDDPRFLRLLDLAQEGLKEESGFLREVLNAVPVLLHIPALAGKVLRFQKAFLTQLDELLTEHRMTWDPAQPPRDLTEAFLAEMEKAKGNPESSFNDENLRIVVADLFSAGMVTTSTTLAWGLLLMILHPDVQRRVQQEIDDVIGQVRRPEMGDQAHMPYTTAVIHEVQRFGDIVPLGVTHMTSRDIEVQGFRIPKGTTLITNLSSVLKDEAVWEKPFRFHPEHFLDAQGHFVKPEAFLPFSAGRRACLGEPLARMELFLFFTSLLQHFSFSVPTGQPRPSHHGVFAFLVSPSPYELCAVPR

CYP2C9, sequence (P11712 whole entry): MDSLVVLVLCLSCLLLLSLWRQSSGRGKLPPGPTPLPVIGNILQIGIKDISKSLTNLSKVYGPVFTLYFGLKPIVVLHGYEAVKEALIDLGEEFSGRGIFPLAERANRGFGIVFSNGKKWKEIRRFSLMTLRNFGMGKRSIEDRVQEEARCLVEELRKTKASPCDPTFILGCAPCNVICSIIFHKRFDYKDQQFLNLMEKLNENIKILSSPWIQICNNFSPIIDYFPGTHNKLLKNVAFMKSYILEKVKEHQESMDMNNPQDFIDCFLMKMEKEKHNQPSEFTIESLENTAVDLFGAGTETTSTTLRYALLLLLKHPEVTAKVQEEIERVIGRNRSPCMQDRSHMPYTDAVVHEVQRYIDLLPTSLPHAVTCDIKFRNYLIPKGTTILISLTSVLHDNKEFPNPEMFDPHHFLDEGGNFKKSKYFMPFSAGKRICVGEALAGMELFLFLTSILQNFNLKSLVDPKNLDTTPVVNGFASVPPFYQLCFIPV

Row | effect on CYP2C8 activity (in words) [1] | IC50 at 8 min [2] [µg/mL] | IC50 at 8 min [3] [µg/mL] | IC50 at 8 min [4] [µg/mL] | SMILES
1 | unaffected | – | – | – | CC1(CO)C(O[C@@H]2O[C@H](C(=O)O)[C@@H](O)[C@H](O)[C@H]2O)CC[C@@]2(C)C1CC[C@]1(C)C2CC=C2[C@H]3CC(C)(C)[C@H](O)[C@@H](O)[C@]3(CO)[C@H](O)C[C@]21C (stereo partly shown) [DGA, deacylgymnemic acid]
2 | – | 0.89 (≈ 2.14 µM) | 0.19 (≈ 0.457 µM) | 0.56 (≈ 1.35 µM) | Clc1ccc(COC(Cn2ccnc2)c2ccc(Cl)cc2Cl)c(Cl)c1 (stereo not shown) [MCZN, miconazole]
